Laboratory results: patent US9868772B2 (INDIANA UNIVERSITY RESEARCH AND TECHNOLOGY CORPORATION, priority 2012, dated 2018)
Numbered stars: 1 amine (or outer) side, 2 acyl side, 3 side chain; on linkers, the order of the positions; unused ones are H or OH. Square brackets hold non-standard residues; d marks the D form. Side chains are listed from the residue outwards. Peptide text beside a SMILES is read from it. * marks the point of attachment. γGlu = O=C(O)[C@H](CCC(=O)[*:2])N[*:1]; Palmitoyl = CCCCCCCCCCCCCCCC(=O)*; Sar = CNCC(=O)O

Key:
GIP receptor [1] = target: T1, GIP receptor (Homo sapiens, UniProt P48546); settings: relative to native GIP; cited from earlier work
T1 construct: expressed in transfected cells; host or cells: HEK293
T1 sequence (P48546 22-466): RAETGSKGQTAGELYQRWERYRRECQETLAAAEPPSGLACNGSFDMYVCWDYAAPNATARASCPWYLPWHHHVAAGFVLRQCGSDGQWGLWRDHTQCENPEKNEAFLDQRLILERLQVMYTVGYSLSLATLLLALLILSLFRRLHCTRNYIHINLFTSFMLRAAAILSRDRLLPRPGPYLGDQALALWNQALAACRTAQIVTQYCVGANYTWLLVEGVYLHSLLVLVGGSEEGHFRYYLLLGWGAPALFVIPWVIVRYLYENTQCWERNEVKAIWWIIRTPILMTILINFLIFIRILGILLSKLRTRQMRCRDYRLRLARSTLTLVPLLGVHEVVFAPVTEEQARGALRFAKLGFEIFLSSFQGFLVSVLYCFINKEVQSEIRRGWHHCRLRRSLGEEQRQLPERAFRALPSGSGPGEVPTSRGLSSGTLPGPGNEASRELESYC

GIP receptor [2] = target: T1, GIP receptor; experiment: cAMP induction, firefly luciferase reporter assay in HEK293 cells co-transfected with receptor; assay type: cell-based; settings: Table 1, analogs of SEQ ID NO: 37
Description: (§1) The ability of glucagon analogs to induce cAMP was measured in a firefly luciferase-based reporter assay. […] At the end of the incubation 100 microliters of LucLite luminescence substrate reagent (Perkin-Elmer, Wellesley, Mass.) were added to each well. […] Effective 50% concentrations were calculated by using Origin software (OriginLab, Northampton, Mass.

GLP-1 receptor = target: T2, GLP-1 receptor (Homo sapiens, UniProt P43220); experiment: as above; assay type: cell-based; settings: Table 1, analogs of SEQ ID NO: 37
T2 construct: expressed in transfected cells; host or cells: HEK293
Description: as §1

glucagon receptor = target: T3, glucagon receptor (Homo sapiens, UniProt P47871); experiment: as above; assay type: cell-based; settings: Table 1, analogs of SEQ ID NO: 37
T3 construct: expressed in transfected cells; host or cells: HEK293
Description: as §1

T2 sequence (P43220 24-463): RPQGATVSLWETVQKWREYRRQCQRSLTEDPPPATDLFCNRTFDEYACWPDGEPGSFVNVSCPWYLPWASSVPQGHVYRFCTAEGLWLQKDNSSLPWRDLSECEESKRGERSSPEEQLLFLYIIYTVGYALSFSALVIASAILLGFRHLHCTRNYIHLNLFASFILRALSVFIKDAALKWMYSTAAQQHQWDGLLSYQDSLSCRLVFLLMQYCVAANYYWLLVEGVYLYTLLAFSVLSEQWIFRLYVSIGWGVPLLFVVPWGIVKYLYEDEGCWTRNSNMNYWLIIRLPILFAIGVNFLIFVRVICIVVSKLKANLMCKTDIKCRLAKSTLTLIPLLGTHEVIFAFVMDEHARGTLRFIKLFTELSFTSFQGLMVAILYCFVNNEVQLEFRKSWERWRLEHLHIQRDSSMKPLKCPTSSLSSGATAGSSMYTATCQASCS
T3 sequence (P47871 26-477): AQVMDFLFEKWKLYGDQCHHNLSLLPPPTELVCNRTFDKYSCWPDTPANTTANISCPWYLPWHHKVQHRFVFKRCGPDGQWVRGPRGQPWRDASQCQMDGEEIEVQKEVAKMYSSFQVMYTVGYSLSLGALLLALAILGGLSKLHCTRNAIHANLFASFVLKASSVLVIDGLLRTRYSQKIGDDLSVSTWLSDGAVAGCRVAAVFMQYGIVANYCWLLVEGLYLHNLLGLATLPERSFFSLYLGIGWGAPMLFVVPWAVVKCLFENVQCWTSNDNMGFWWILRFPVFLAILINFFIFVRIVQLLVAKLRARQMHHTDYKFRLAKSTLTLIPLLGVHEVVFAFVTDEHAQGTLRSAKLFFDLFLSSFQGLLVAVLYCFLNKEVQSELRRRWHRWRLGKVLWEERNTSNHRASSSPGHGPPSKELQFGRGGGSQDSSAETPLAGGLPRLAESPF

Row | Compound | activity of native GIP at the GIP receptor (GIP receptor [1]) [%] | EC50 (GIP receptor [2]) [pM] | EC50 (GLP-1 receptor) [pM] | EC50 (glucagon receptor) [pM]
1 | Native glucagon: native human glucagon (SEQ ID NO: 1) | ~0 | – | – | –
2 | CCCCCCCCCCCCCCCC(=O)N[C@@H](CCC(=O)NCCCC[C@H](NC(=O)[C@H](CC(=O)O)NC(=O)[C@H](CO)NC(=O)[C@@H](NC(=O)[C@H](Cc1ccccc1)NC(=O)[C@@H](NC(=O)CNC(=O)[C@H](CCC(N)=O)NC(=O)CN(C)C(=O)[C@@H](N)Cc1c[nH]cn1)[C@@H](C)O)[C@@H](C)O)C(=O)N[C@@H](CO)C(=O)N[C@@H](CCCCN)C(=O)N[C@@H](Cc1ccc(O)cc1)C(=O)N[C@@H](CC(C)C)C(=O)N[C@@H](CC(=O)O)C(=O)N[C@@H](CCC(=O)O)C(=O)N[C@@H](CCCNC(=N)N)C(=O)N[C@@H](C)C(=O)N[C@@H](C)C(=O)N[C@@H](CCC(N)=O)C(=O)N[C@@H](CC(=O)O)C(=O)N[C@@H](Cc1ccccc1)C(=O)N[C@H](C(=O)N[C@@H](CCC(N)=O)C(=O)N[C@@H](Cc1c[nH]c2ccccc12)C(=O)N[C@@H](CC(C)C)C(=O)N[C@@H](CC(C)C)C(=O)N[C@@H](CCC(=O)O)C(=O)NCC(=O)NCC(=O)N1CCC[C@H]1C(=O)N[C@@H](CO)C(=O)N[C@@H](CO)C(=O)NCC(=O)N[C@@H](C)C(=O)N1CCC[C@H]1C(=O)N1CCC[C@H]1C(=O)N1CCC[C@H]1C(=O)N[C@@H](CO)C(N)=O)C(C)C)C(=O)O [compound 28] (H-H[Sar]QGTFTSDK([γGlu-Palmitoyl])SKYLDERAAQDFVQWLLEGGPSSGAPPPS-NH2) | – | 81 | 2 | 22
3 | CCCCCCCCCCCCCCCC(=O)N[C@@H](CCC(=O)NCCCC[C@H](NC(=O)[C@H](CC(=O)O)NC(=O)[C@H](CO)NC(=O)[C@@H](NC(=O)[C@H](Cc1ccccc1)NC(=O)[C@@H](NC(=O)CNC(=O)[C@H](CCC(N)=O)NC(=O)[C@@H]1CCCN1C(=O)[C@H](N)Cc1c[nH]cn1)[C@@H](C)O)[C@@H](C)O)C(=O)N[C@@H](CO)C(=O)N[C@@H](CCCCN)C(=O)N[C@@H](Cc1ccc(O)cc1)C(=O)N[C@@H](CC(C)C)C(=O)N[C@@H](CC(=O)O)C(=O)N[C@@H](CCC(=O)O)C(=O)N[C@@H](CCCNC(=N)N)C(=O)N[C@@H](C)C(=O)N[C@@H](C)C(=O)N[C@@H](CCC(N)=O)C(=O)N[C@@H](CC(=O)O)C(=O)N[C@@H](Cc1ccccc1)C(=O)N[C@H](C(=O)N[C@@H](CCC(N)=O)C(=O)N[C@@H](Cc1c[nH]c2ccccc12)C(=O)N[C@@H](CC(C)C)C(=O)N[C@@H](CC(C)C)C(=O)N[C@@H](CCC(=O)O)C(=O)NCC(=O)NCC(=O)N1CCC[C@H]1C(=O)N[C@@H](CO)C(=O)N[C@@H](CO)C(=O)NCC(=O)N[C@@H](C)C(=O)N1CCC[C@H]1C(=O)N1CCC[C@H]1C(=O)N1CCC[C@H]1C(=O)N[C@@H](CO)C(N)=O)C(C)C)C(=O)O [compound 27] (H-[dH]PQGTFTSDK([γGlu-Palmitoyl])SKYLDERAAQDFVQWLLEGGPSSGAPPPS-NH2; N-terminus assumed) | – | 80 | 3 | 34
4 | CCCCCCCCCCCCCCCC(=O)N[C@@H](CCC(=O)NCCCC[C@H](NC(=O)[C@H](CC(=O)O)NC(=O)[C@H](CO)NC(=O)[C@@H](NC(=O)[C@H](Cc1ccccc1)NC(=O)[C@@H](NC(=O)CNC(=O)[C@H](CCC(N)=O)NC(=O)[C@H](C)NC(=O)[C@H](N)Cc1ccc(O)cc1)[C@@H](C)O)[C@@H](C)O)C(=O)N[C@@H](CO)C(=O)N[C@@H](CCCCN)C(=O)N[C@@H](Cc1ccc(O)cc1)C(=O)N[C@@H](CC(C)C)C(=O)N[C@@H](CC(=O)O)C(=O)N[C@@H](CCC(=O)O)C(=O)N[C@@H](CCCNC(=N)N)C(=O)N[C@@H](C)C(=O)N[C@@H](C)C(=O)N[C@@H](CCC(N)=O)C(=O)N[C@@H](CC(=O)O)C(=O)N[C@@H](Cc1ccccc1)C(=O)N[C@H](C(=O)N[C@@H](CCC(N)=O)C(=O)N[C@@H](Cc1c[nH]c2ccccc12)C(=O)N[C@@H](CC(C)C)C(=O)N[C@@H](CC(C)C)C(=O)N[C@@H](CCC(=O)O)C(=O)NCC(=O)NCC(=O)N1CCC[C@H]1C(=O)N[C@@H](CO)C(=O)N[C@@H](CO)C(=O)NCC(=O)N[C@@H](C)C(=O)N1CCC[C@H]1C(=O)N1CCC[C@H]1C(=O)N1CCC[C@H]1C(=O)N[C@@H](CO)C(N)=O)C(C)C)C(=O)O [compound 15] | – | 8 | 4 | 50
5 | CCCCCCCCCCCCCCCC(=O)N[C@@H](CCC(=O)NCCCC[C@H](NC(=O)[C@H](CC(=O)O)NC(=O)[C@H](CO)NC(=O)[C@@H](NC(=O)[C@H](Cc1ccccc1)NC(=O)[C@@H](NC(=O)CNC(=O)[C@H](CCC(N)=O)NC(=O)[C@H](C)NC(=O)[C@H](N)Cc1c[nH]cn1)[C@@H](C)O)[C@@H](C)O)C(=O)N[C@@H](CO)C(=O)N[C@@H](CCCCN)C(=O)N[C@@H](Cc1ccc(O)cc1)C(=O)N[C@@H](CC(C)C)C(=O)N[C@@H](CC(=O)O)C(=O)N[C@@H](CCC(=O)O)C(=O)N[C@@H](CCCNC(=N)N)C(=O)N[C@@H](C)C(=O)N[C@@H](C)C(=O)N[C@@H](CCC(N)=O)C(=O)N[C@@H](CC(=O)O)C(=O)N[C@@H](Cc1ccccc1)C(=O)N[C@H](C(=O)N[C@@H](CCC(N)=O)C(=O)N[C@@H](Cc1c[nH]c2ccccc12)C(=O)N[C@@H](CC(C)C)C(=O)N[C@@H](CC(C)C)C(=O)N[C@@H](CCC(=O)O)C(=O)NCC(=O)NCC(=O)N1CCC[C@H]1C(=O)N[C@@H](CO)C(=O)N[C@@H](CO)C(=O)NCC(=O)N[C@@H](C)C(=O)N1CCC[C@H]1C(=O)N1CCC[C@H]1C(=O)N1CCC[C@H]1C(=O)N[C@@H](CO)C(N)=O)C(C)C)C(=O)O [compound 16] | – | 10 | 2 | 10
